Test results as given in patent US20250375434A1, “SMALL MOLECULES AND METHODS FOR INDUCING CARDIOMYOCYTE PROLIFERATION” (UNIVERSITY OF VIRGINIA PATENT FOUNDATION, priority 2024, published 2025).

How the values were obtained:
[1] = system: hiPSC-CMs (iCell Cardiomyocytes); assay: Live-cell proliferation assay (change in number of cells over 6 days)
Method: Using the same live-cell proliferation assay we developed in the previous study [13], we confirmed the 5-point concentration-response profiles (0.1-10.0 μM) in three independent manufacturing lots of iCell Cardiomyocytes (FIG. 7). Briefly, hiPSC-CMs were stained with a low, non-toxic concentration of Hoechst 33342 and the same imaging fields of view were collected at both initial (day 0) and final (day 6) timepoints. We quantified the change in the number of cells, binucleation events, and DNA content distribution using the image segmentation and analysis pipeline described in the previous study [13].
ICell Cardiomyocytes (Cellular Dynamics International) were seeded in 96-well or 384-well Corning CellBind plates at approximately 2.5×10^4 to 3.5×10^4 cells/cm^2. […] Cells were cultured for all experiments in a humidified environment at 37° C. with 5% CO2.
Pharmacology Metrics—Based on concentration-dependent responses of changes in cell number, we quantified area under the curve (AUC) as the sum of the relative changes in cell number across the five concentrations of compound. As a measure of potency, we performed cubic B-spline interpolation and then calculated the minimum concentration needed to achieve 50% of the maximum effect.

VEGFR2 (KDR) = details: 12 h treatment, compared to the DMSO negative control
Method: To further investigate the role of RTKs in compound-induced proliferation, we profiled the activity of 49 RTKs using a specialized array with the same protein lysates used for the RPPA.
Cells were seeded in 60 mm Corning CellBind dishes, cultured for 6 days, serum starved for 4 h, and treated with compounds for 12 h with 3 replicates. At the end of the experiment, cells were treated with 1 mM peroxyvanadate (1 mM NaVO3, 0.1 μg/mL Catalase, 0.003% H2O2) for 15 min prior to cell lysis. Cells were then rinsed with ice-cold 1×PBS and lysed on ice for 15 min with lysis buffer (50 mM Tris-HCl pH 7.5, 150 mM NaCl, 0.1 mM EDTA, 1 mM DTT, 1 mM NaVO3, 0.5% TritonX-100) containing protease inhibitor cocktail (Sigma). Cell lysates were mechanically homogenized using 28-gauge syringes, spun down, and adjusted to equivalent concentrations. The Proteome Profiler Human Phospho-RTK Array Kit (R&D Systems) was used to measure phosphorylation activity of 49 RTKs. Briefly, the arrays with printed anti-RTK antibodies were blocked for 1 hour and incubated with 38.8 μg of total protein lysate overnight at 4° C. The arrays were then washed and incubated with anti-phospho-tyrosine antibodies conjugated to HRP and detected via chemiluminescence. Array films were scanned and Image Studio software (LI-COR) was used to quantify intensities of each spot. […]

[2] = system: hiPSC-CMs (iCell Cardiomyocytes); assay: DNA content / ploidy and cell cycle phase analysis after 6 days of treatment
[3] = system: hiPSC-CMs (iCell Cardiomyocytes); assay: DNA synthesis assay (48 h EdU incorporation)
Method: ICell Cardiomyocytes (Cellular Dynamics International) were seeded in 96-well or 384-well Corning CellBind plates at approximately 2.5×10^4 to 3.5×10^4 cells/cm^2. Cells were cultured for 2 days in iCell Cardiomyocytes Plating Medium (Cellular Dynamics International) supplemented with 1% Penicillin/Streptomycin (P/S; Gibco) followed by an additional 4 days in iCell Cardiomyocytes Maintenance Medium (Cellular Dynamics International) supplemented with 1% P/S. For all experiments, cells were first serum starved for 4 h and then treated in William's E medium without phenol red (Gibco) supplemented with Primary Hepatocyte Cell Maintenance Cocktail B (Gibco) containing P/S, ITS+, GlutaMAX, and HEPES. Cells were cultured for all experiments in a humidified environment at 37° C. with 5% CO2.
EdU incorporation and labeling with copper catalyzed click chemistry was used to measure DNA synthesis. Cells were treated in the presence of 1 μM EdU (Invitrogen) for 48 h, and subsequently fixed and permeabilized prior to incubation with the EdU click chemistry reaction mix—100 mM Tris HCL pH 7.0 (Gentrox), 4 mM CuSO4 (Sigma), 100 mM ascorbic acid (Sigma), and 5 μM Alexa Fluor 546 Azide (Click Chemistry Tools). After labelling EdU, cells were stained with anti-Cardiac Troponin T (Abcam) and DAPI (Sigma).
Custom image analysis and processing pipelines were developed and implemented in MATLAB to quantify the number of nuclei/cells, percent EdU positive objects, percent Ki67 positive objects, multinucleation, DNA content, cell cycle phases, and ploidy.
Classification—The binary segmented mask and background subtracted images were used to calculate the mean intensities of Hoechst 33342, DAPI, Cardiac-Troponin T, EdU, and Ki67 staining for each segmented object. […] Marker positivity thresholds were determined using Rosin's unimodal thresholding algorithm [63] on the mean intensity values for each segmented object.

[4] = system: hiPSC-CMs (iCell Cardiomyocytes); assay: Multinucleation analysis after 6 days of treatment; format: cell-based, human; details: 10 μM inhibitor alone or with C3, compared to negative control or compound treatment alone
Method: Multinucleation Analysis—Multinucleated cells were identified based on the distance between neighboring nuclei. This distance threshold was determined using Cardiac-Troponin T staining to visualize cell borders. A morphological closing operation with a circular structuring element was applied to the binary segmented mask to merge and classify nuclei in multinucleated cells.

Compound: Cc1cccc(-c2n[nH]cc2-c2ccc3ncccc3n2)n1 [C3, RepSox]
- maximum-effect concentration ([1]; 5-point concentration response 0.1-10 μM, 6 days): 3.2 µM
- proliferation (change in the number of cells over 6 days) ([1]; compound alone at Emax concentration, 6 days): induces proliferation
- VEGFR2 (KDR) activation / expression (VEGFR2 (KDR)): induced
- endoreplication cycles [2]: without additional endoreplication cycles

Compound: COc1cccc(-c2cc(=O)c3ccccc3o2)c1N [PD98059]
- effect of inhibitor on C3 induced proliferation (increase in cell numbers) ([1]; 10 μM inhibitor in combination with 3.2 μM C3, day 6): only INK and PI3K inhibition attenuated
- effect of inhibitor alone on DNA synthesis (EdU incorporation) ([3]; 10 μM inhibitor alone, unstimulated hiPSC-CMs, 48 h): modest decreases
- effect of inhibitor on C3 induced DNA synthesis ([3]; 10 μM inhibitor in combination with 3.2 μM C3, 48 h): attenuated

Compound: CNC(=O)c1ccccc1Sc1ccc2c(/C=C/c3ccccn3)n[nH]c2c1 [axitinib]
- increase in multinucleation [4]: over 2 fold

Compound: C[C@]1(O)C[C@@H](c2nc(-c3ccc4ccc(-c5ccccc5)nc4c3)c3c(N)nccn32)C1 [linsitinib]
- effect of inhibitor on late-stage proliferation metrics ([1]; 0.1 μM inhibitor in combination with 3.2 μM C3, day 6): no effect
- effect of inhibitor on C3 induced DNA synthesis ([3]; 0.1 μM inhibitor in combination with 3.2 μM C3, 48 hrs): modest effect in reducing
